Patent US11242346B2, “Mechanistic target of rapamycin signaling pathway inhibitors and therapeutic applications thereof” (SUZHOU KINTOR PHARMACEUTICALS, INC., priority 2016, dated 2022)

Tests used:
[1] = system: mammalian tumor cell lines such as PC-3, LNCAP, U87, Huh-7, HepG2 and MDA-MB-468; assay: Cell proliferation/survival MTT assay in tumor cell lines; format: cell-based; settings: 5 days (120 h) culture; cell line not specified; read-out: IC50, inhibition of tumor cell growth (MTT)
Experimental: The cytotoxic or cytostatic activity of Formula I-III exemplary compounds was measured by establishing proliferating mammalian tumor cell lines such as PC-3, LNCAP, U87, Huh-7, HepG2 and MDA-MB-468 in a cell culture medium, adding a test compound, culturing the cells for a period of 5 days by measuring cell viability via MTT assays. Dose response data were obtained for each test compound and the degree of inhibition of tumor cell growth was expressed as an IC50 value. […] For example. For example, compounds of example 14, 15, 46,29, 45, 49, 122, 88, 54, 55, 58, 59, 63, 64, 66, 67, 68, 113, 86, 90.
PC-3 (or U87) cells were seeded in 96-well plates at low density (at 2,000 cells per well) in media supplemented with 10% FBS (growth media) and transferred to serum-free media (1% FBS) after 24 h. Designated concentrations of drug were added to each well. The cells were incubated for 120 h. At the end of drug exposure, 20 μL/well of MTT solution was added. After 4 h at 37° C. in a humidified 5% CO2 atmosphere, the absorbance at 490 nm was recorded by using a microplate reader. IC50 was calculated using GraphPad Prism version 5 for Windows. The curves were fit using a nonlinear regression model with a log (inhibitor) versus response formula.

[2] = biological target: mTOR (FRAP1) (Homo sapiens, UniProt P42345); assay: SelectScreen Profiling, Z'-LYTE kinase assay, mTOR (FRAP1); format: biochemical; settings: 0.1 μM compound, ATP at Km, read-out: mTOR inh% @0.1 μM
Source text: (§1) Some of the example compounds were submitted to Life Technologies Corporation SelectScreen® Profiling Service to test their potency in inhibiting the kinase catalytic activities of mTOR, PI3Kα, VEGF2, FGFR1, HER1 (EGFR) and HER2. A concentration of ATP at the Km of the corresponding kinase was used for all assays. The mTOR (FRAP1), VEGF2, FGFR1, HER1 (EGFR) and HER2 assays used Z′-LYTE® technology. The PI3Kα assay used Adapta® technology. The symbol “inh %” as used herein generally refers to inhibition percentage.

[3] = biological target: VEGF2 (Homo sapiens, UniProt P35968); assay: SelectScreen Profiling, Z'-LYTE kinase assay, VEGF2; format: biochemical; settings: 1 μM compound, ATP at Km, read-out: VEGF 2 inh % @1 μM
Source text: as §1

[4] = biological target: FGFR1 (Homo sapiens, UniProt P11362); assay: SelectScreen Profiling, Z'-LYTE kinase assay, FGFR1; format: biochemical; settings: 1 μM compound, ATP at Km, read-out: FGFR 1 inh % @1 μM
Source text: as §1

[5] = biological target: HER1 (EGFR) (Homo sapiens, UniProt P00533); assay: SelectScreen Profiling, Z'-LYTE kinase assay, HER1 (EGFR); format: biochemical; settings: 1 μM compound, ATP at Km, read-out: HER1 inh % @1 μM
Source text: as §1

[6] = biological target: HER2 (Homo sapiens, UniProt P04626); assay: SelectScreen Profiling, Z'-LYTE kinase assay, HER2; format: biochemical; settings: 1 μM compound, ATP at Km, read-out: HER2 inh % @1 μM
Source text: as §1

[7] = biological target: PI3Kα (Homo sapiens, UniProt P42336); assay: SelectScreen Profiling, Adapta kinase assay, PI3Kα; format: biochemical; settings: 0.1 μM compound, ATP at Km, read-out: PI3Kα inh % @0.1 μM
[8] = Metabolic stability in human liver microsome (HLM); format: in vitro ADME; settings: incubation with human liver microsome for 60 min
Experimental: (§2) Active mTOR inhibitors in enzymatic and/or cell-based assays herein were evaluated for pharmacokinetic properties. Preferable compounds are with pharmacokinetic properties of low clearance, long half-life and/or good oral bioavailability (Fpo). In vitro, selected example compounds were evaluated for metabolic stability by incubating with human liver microsome (HLM) for 60 min. Compounds that were metabolized slower (i.e. higher % remaining) are preferred. […] The more metabolic stable example compounds in the HLM assay were further evaluated for pharmacokinetic properties in vivo. In a representative experiment, selected example compounds were dosed to rats intravenously (IV, 5 mg/kg, 30% PEG400+30% PG+1% DMSO in saline) and orally (PO, 10 mg/kg, 2.4% DMSO+0.1% Tween80 in 0.5% CMC-Na), rat blood samples were taken at designed time points after dosing and analyzed for tested drug concentrations using LC-MS/MS. Pharmacokinetic parameters were derived from the time curve of drug concentrations.

[9] = Rat pharmacokinetic study (IV and PO); format: in vivo; settings: for bioavailability: PO 10 mg/kg vs IV 5 mg/kg, read-out: Fpo (oral bioavailability)
Experimental: as §2

Chain of VEGF2 (P35968 20-1356): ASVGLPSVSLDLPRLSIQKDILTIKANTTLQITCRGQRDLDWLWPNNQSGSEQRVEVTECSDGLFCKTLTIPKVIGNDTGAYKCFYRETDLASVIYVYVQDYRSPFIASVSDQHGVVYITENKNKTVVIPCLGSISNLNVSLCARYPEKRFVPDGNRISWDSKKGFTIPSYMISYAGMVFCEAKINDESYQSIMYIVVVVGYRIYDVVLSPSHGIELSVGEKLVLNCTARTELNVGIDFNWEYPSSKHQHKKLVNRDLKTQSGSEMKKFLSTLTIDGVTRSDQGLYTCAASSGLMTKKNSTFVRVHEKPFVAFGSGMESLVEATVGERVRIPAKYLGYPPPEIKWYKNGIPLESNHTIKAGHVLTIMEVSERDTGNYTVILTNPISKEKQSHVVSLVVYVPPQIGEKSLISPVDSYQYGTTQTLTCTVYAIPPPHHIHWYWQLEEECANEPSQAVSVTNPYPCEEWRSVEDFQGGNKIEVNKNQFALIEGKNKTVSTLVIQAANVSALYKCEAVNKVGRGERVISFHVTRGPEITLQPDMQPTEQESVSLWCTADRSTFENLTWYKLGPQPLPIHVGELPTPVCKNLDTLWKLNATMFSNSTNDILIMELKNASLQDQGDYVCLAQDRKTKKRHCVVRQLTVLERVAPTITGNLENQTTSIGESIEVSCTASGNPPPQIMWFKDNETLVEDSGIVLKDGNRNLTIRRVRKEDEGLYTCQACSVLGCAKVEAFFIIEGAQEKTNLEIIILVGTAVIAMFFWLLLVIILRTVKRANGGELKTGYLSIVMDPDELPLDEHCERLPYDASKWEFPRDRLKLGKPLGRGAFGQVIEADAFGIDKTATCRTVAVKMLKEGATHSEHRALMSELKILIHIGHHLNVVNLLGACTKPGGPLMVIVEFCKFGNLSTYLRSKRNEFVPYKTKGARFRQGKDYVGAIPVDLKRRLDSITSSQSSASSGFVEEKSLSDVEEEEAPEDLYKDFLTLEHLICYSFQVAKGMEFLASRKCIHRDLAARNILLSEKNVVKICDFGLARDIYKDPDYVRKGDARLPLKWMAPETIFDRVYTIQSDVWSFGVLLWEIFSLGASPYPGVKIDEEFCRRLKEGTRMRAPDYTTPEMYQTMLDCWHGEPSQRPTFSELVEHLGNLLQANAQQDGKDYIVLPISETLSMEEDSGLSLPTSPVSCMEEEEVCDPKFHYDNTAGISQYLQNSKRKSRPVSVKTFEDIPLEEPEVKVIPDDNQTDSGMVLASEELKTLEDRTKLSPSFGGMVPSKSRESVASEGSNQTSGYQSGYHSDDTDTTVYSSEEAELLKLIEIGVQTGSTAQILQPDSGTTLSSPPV
Chain of HER1 (EGFR) (P00533 25-1210): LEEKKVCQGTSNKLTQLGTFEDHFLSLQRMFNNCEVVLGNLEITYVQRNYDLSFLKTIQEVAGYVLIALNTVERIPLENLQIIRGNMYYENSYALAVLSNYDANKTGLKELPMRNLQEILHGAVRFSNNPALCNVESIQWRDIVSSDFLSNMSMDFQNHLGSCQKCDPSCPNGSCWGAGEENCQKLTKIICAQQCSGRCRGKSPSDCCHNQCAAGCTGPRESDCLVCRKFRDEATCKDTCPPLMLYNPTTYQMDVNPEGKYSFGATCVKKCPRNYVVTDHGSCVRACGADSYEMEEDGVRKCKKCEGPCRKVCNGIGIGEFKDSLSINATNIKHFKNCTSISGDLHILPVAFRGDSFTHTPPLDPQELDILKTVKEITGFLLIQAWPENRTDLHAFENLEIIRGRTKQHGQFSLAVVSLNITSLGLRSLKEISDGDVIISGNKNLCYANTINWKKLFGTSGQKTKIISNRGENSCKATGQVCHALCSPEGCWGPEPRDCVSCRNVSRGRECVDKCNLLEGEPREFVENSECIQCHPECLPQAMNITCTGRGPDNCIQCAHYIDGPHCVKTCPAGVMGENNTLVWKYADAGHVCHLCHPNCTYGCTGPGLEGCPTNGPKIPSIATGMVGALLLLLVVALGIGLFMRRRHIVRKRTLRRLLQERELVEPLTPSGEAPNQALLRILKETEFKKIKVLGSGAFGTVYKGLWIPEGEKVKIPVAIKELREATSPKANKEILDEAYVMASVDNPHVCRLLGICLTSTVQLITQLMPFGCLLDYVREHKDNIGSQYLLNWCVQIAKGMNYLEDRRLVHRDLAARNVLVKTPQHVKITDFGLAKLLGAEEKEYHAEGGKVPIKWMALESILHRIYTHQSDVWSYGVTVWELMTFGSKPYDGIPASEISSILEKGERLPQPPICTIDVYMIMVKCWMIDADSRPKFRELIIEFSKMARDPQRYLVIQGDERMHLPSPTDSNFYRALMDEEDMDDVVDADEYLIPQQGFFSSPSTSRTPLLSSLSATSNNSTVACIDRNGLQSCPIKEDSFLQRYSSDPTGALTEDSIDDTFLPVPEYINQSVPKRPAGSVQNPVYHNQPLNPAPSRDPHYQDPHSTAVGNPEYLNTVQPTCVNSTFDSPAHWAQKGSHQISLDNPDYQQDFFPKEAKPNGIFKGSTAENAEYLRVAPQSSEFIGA
Chain of HER2 (P04626 23-1255): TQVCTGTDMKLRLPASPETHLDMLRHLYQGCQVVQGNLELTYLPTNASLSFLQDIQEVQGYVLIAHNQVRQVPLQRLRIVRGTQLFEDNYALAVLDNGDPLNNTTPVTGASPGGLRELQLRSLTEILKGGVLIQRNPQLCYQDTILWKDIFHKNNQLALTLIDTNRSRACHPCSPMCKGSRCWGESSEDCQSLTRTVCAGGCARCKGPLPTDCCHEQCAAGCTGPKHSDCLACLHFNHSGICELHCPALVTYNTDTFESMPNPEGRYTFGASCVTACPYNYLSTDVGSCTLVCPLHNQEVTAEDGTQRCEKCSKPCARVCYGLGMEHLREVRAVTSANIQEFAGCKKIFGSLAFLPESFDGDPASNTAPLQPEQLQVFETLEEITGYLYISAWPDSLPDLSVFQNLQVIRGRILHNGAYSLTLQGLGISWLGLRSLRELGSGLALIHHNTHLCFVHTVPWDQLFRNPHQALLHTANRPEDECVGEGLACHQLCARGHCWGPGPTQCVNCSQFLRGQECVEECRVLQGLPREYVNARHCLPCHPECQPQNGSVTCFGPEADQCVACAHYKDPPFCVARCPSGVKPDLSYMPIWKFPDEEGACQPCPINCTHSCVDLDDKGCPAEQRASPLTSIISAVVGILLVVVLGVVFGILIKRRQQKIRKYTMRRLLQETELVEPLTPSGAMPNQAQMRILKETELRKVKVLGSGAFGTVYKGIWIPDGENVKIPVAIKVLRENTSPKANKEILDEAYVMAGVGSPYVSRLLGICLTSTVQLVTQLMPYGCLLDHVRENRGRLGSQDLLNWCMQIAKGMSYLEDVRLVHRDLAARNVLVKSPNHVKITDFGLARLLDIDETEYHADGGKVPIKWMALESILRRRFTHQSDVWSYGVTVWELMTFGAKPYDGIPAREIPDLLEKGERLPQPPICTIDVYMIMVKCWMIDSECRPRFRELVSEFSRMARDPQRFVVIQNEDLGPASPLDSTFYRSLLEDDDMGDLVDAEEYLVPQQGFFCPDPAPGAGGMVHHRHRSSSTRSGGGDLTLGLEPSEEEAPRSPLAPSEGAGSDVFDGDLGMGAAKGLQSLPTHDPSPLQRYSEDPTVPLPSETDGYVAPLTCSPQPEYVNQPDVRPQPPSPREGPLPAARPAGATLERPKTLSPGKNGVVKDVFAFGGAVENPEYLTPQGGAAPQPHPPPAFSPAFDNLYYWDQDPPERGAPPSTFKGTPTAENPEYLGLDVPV
Chain of FGFR1 (P11362 22-822): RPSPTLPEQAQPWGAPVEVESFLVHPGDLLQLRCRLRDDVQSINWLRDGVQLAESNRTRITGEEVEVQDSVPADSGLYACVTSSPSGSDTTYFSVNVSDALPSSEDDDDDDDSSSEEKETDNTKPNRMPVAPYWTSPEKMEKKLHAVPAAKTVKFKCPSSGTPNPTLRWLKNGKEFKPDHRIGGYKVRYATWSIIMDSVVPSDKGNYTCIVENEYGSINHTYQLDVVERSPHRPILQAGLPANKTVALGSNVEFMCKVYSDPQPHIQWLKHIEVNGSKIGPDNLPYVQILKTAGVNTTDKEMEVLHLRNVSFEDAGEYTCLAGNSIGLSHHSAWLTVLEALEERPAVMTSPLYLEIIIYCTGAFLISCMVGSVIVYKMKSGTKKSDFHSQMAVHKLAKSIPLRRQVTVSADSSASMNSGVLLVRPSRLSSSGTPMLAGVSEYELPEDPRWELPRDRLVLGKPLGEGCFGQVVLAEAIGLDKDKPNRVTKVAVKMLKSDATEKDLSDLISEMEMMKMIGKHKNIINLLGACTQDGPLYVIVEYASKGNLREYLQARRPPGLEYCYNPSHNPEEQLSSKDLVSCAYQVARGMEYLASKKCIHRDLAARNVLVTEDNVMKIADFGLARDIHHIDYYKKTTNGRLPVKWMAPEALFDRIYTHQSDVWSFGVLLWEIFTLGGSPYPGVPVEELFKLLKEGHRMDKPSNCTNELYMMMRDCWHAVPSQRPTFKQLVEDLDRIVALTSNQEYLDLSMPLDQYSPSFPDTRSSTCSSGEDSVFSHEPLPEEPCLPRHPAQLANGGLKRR

OCCNC(=S)Nc1ccc(-c2nc(N3CCOCC3)c3cccn3n2)cc1 [Example 113]
IC50 [1]: < 500 nM

O=C(Nc1ccc(C(=O)N2CC(O)C2)cc1)Nc1ccc(-c2nc(N3CCOCC3)c3cccn3n2)cc1 [Example 54]
inhibition at 0.1 µM [2]: 95% | inhibition at 1 µM [3]: 7% | inhibition at 1 µM [4]: -4% | inhibition at 1 µM [5]: -1% | inhibition at 1 µM [6]: 4% | IC50 [1]: < 500 nM

O=C(Nc1ccc(-c2nc(N3CCOCC3)c3ccc(C(F)(F)F)n3n2)cc1)Nc1cccnc1 [Example 62]
inhibition at 0.1 µM [2]: 53% | inhibition at 0.1 µM [7]: 10%

CN1CCN(CCNC(=O)c2ccc(NC(=O)Nc3ccc(-c4nc(N5CCOCC5)c5cccn5n4)cc3)cc2)CC1 [Example 49]
inhibition at 0.1 µM [2]: 88% | IC50 [1]: < 500 nM

O=C(Nc1ccc(C(=O)N2CC[C@H](O)C2)cc1)Nc1ccc(-c2nc(N3CCOCC3)c3cccn3n2)cc1 [Example 68]
inhibition at 0.1 µM [2]: 86% | IC50 [1]: < 500 nM

C[C@@H]1COCCN1c1nc(-c2ccc(NC(=O)Nc3ccc(C(=O)N4CC[C@H](O)C4)cc3)cc2)nn2cccc12 [Example 89]
metabolic stability in HLM [8]: metabolically stable

C[C@@H]1COCCN1c1nc(-c2ccc(NC(=O)Nc3cccnc3)cc2)nn2cccc12 [Example 17]
inhibition at 0.1 µM [7]: 25%

C[C@@H](CO)NC(=O)Nc1ccc(-c2nc(N3CCOCC3)c3cccn3n2)cc1 [Example 52]
inhibition at 0.1 µM [2]: 74% | inhibition at 0.1 µM [7]: 6%

CN1CCCN(C(=O)c2ccc(NC(=O)Nc3ccc(-c4nc(N5CCOCC5)c5cccn5n4)cc3)cc2)CC1 [Example 59]
inhibition at 0.1 µM [2]: 93% | inhibition at 1 µM [3]: 10% | inhibition at 1 µM [4]: 7% | inhibition at 1 µM [5]: 2% | inhibition at 1 µM [6]: -2% | IC50 [1]: < 500 nM

O=C(Nc1ccc(C(=O)N2CCC(O)CC2)cc1)Nc1ccc(-c2nc(N3CCOCC3)c3cccn3n2)cc1 [Example 55]
inhibition at 0.1 µM [2]: 90% | inhibition at 1 µM [3]: 11% | inhibition at 1 µM [4]: -1% | inhibition at 1 µM [5]: 0% | inhibition at 1 µM [6]: 5% | IC50 [1]: < 500 nM | metabolic stability in HLM [8]: metabolically stable

S=C(Nc1ccc(-c2nc(N3CCOCC3)c3cccn3n2)cc1)Nc1cccnc1 [Example 106]
metabolic stability in HLM [8]: metabolically stable | CL ([9]; PO 10 mg/kg): 4.12 mL/min/kg | AUC(0-t) ([9]; blood, IV 5 mg/kg): 41500 ng·h/mL | Cmax ([9]; blood, IV 5 mg/kg): 21200 ng/mL | MRT ([9]; blood, IV 5 mg/kg): 1.67 h | clearance ([9]; blood, IV 5 mg/kg): 2.03 mL/min/kg | half-life ([9]; blood, IV 5 mg/kg): 1.42 h | AUC(0-t) ([9]; blood, PO 10 mg/kg): 73400 ng·h/mL | Cmax ([9]; blood, PO 10 mg/kg): 9990 ng/mL | MRT ([9]; blood, PO 10 mg/kg): 5.68 h | Tmax ([9]; blood, PO 10 mg/kg): 2.5 h | half-life ([9]; blood, PO 10 mg/kg): 3.26 h | bioavailability ([9]; blood): 89%

O=C(Nc1ccc(-c2nc(N3CCOCC3)c3cccn3n2)cc1)Nc1ccc(CO)nc1 [Example 96]
metabolic stability in HLM [8]: metabolically stable

O=C(Nc1ccc(-c2nc(N3CCOCC3)c3cccn3n2)cc1)NC1CC1 [Example 38]
inhibition at 0.1 µM [2]: 69% | inhibition at 0.1 µM [7]: -8%

O=C(Nc1ccc(C(=O)NCCN2CCOCC2)cc1)Nc1ccc(-c2nc(N3CCOCC3)c3cccn3n2)cc1 [Example 48]
inhibition at 0.1 µM [2]: 69% | inhibition at 0.1 µM [7]: -15%

CC(C)(C)C(=O)OCCNC(=O)Nc1ccc(-c2nc(N3CCOCC3)c3cccn3n2)cc1 [Example 128]
CL ([9]; PO 10 mg/kg): 25.05 mL/min/kg | AUC(0-t) ([9]; blood, PO 10 mg/kg): 7290 ng·h/mL | Cmax ([9]; blood, PO 10 mg/kg): 1520 ng/mL | MRT ([9]; blood, PO 10 mg/kg): 3.45 h | Tmax ([9]; blood, PO 10 mg/kg): 1.67 h | half-life ([9]; blood, PO 10 mg/kg): 1.9 h | bioavailability ([9]; blood): 22%

CN(C)C1CN(C(=O)c2ccc(NC(=O)Nc3ccc(-c4nc(N5CCOCC5)c5cccn5n4)cc3)cc2)C1 [Example 86]
inhibition at 0.1 µM [2]: 82% | IC50 [1]: < 500 nM
